# From patent publication US9884842B2, “Combretastatin analogs” (The Board of Trustees of the University of Arkansas, priority 2013, dated 2018)
# Where two headings read alike, the source gives them in different places.
# Tests used:
# NCI-H23 = experiment: NCI growth inhibition and cytotoxicity screen, Lung Cancer panel; conditions: Homo sapiens; for GI50: NCI-H23; for CC50: NCI-H23, read-out: LC50
# CCRF-CEM = experiment: NCI growth inhibition and cytotoxicity screen, Leukemia panel; conditions: Homo sapiens; for CC50: read-out: LC50
# SW-620 = experiment: NCI growth inhibition and cytotoxicity screen, Colon Cancer panel; conditions: Homo sapiens; for GI50: SW-620; for CC50: SW-620, read-out: LC50
# 786-0 = experiment: NCI growth inhibition and cytotoxicity screen, Renal Cancer panel; conditions: Homo sapiens; for GI50: 786-0; for CC50: 786-0, read-out: LC50
# BT-549 = experiment: NCI growth inhibition and cytotoxicity screen, Breast Cancer panel; conditions: Homo sapiens; for GI50: BT-549; for CC50: BT-549, read-out: LC50
# M14 = experiment: NCI growth inhibition and cytotoxicity screen, Melanoma panel; conditions: Homo sapiens; for GI50: M14; for CC50: M14, read-out: LC50
# NCI-H322M = experiment: NCI growth inhibition and cytotoxicity screen, Lung Cancer panel; conditions: Homo sapiens; for CC50: read-out: LC50
# UO-31 = experiment: NCI growth inhibition and cytotoxicity screen, Renal Cancer panel; conditions: Homo sapiens; for CC50: UO-31, read-out: LC50
# HCT-15 = experiment: NCI growth inhibition and cytotoxicity screen, Colon Cancer panel; conditions: Homo sapiens; for GI50: HCT-15; for CC50: HCT-15, read-out: LC50
# KM12 = experiment: as above; conditions: Homo sapiens; for GI50: KM12; for CC50: KM12, read-out: LC50
# SK-OV-3 = experiment: NCI growth inhibition and cytotoxicity screen, Ovarian Cancer panel; conditions: Homo sapiens; for GI50: SK-OV-3; for CC50: SK-OV-3, read-out: LC50
# SF-268 = experiment: NCI growth inhibition and cytotoxicity screen, CNS Cancer panel; conditions: Homo sapiens; for GI50: SF-268; for CC50: SF-268, read-out: LC50
# NCI-H226 = experiment: NCI growth inhibition and cytotoxicity screen, Lung Cancer panel; conditions: Homo sapiens; for GI50: NCI-H226; for CC50: NCI-H226, read-out: LC50
# MALME-3M = experiment: NCI growth inhibition and cytotoxicity screen, Melanoma panel; conditions: Homo sapiens
# [1] = test system: full panel of 60 different cancer cell lines; experiment: NCI five dose screen, full panel summary; format: cell-based, human; conditions: for GI50: Homo sapiens; for potent growth inhibition on % of the cancer cell lines: share of the cancer cell lines potently inhibited
# CAKI-1 = experiment: NCI growth inhibition and cytotoxicity screen, Renal Cancer panel; conditions: Homo sapiens; for GI50: CAKI-1; for CC50: CAKI-1, read-out: LC50
# NCI/ADR-RES = experiment: NCI growth inhibition and cytotoxicity screen, Ovarian Cancer panel; conditions: Homo sapiens; for CC50: read-out: LC50
# HT29 = experiment: NCI growth inhibition and cytotoxicity screen, Colon Cancer panel; conditions: Homo sapiens; for GI50: HT-29; for CC50: HT-29, read-out: LC50
# K-562 = experiment: NCI growth inhibition and cytotoxicity screen, Leukemia panel; conditions: Homo sapiens; for GI50: K562; for CC50: K562, read-out: LC50
# IGROV1 = experiment: NCI growth inhibition and cytotoxicity screen, Ovarian Cancer panel; conditions: Homo sapiens; for GI50: IGROV-1; for CC50: IGROV-1, read-out: LC50
# NCI-H460 = experiment: NCI growth inhibition and cytotoxicity screen, Lung Cancer panel; conditions: Homo sapiens; for GI50: NCI-H460; for CC50: NCI-H460, read-out: LC50
# LOX-IMVI = experiment: NCI growth inhibition and cytotoxicity screen, Melanoma panel; conditions: Homo sapiens; for CC50: read-out: LC50
# SNB-19 = experiment: NCI growth inhibition and cytotoxicity screen, CNS Cancer panel; conditions: Homo sapiens; for GI50: SNB-19; for CC50: SNB-19, read-out: LC50
# HCT-116 = experiment: NCI growth inhibition and cytotoxicity screen, Colon Cancer panel; conditions: Homo sapiens; for GI50: HCT-116; for CC50: HCT-116, read-out: LC50
# UACC-257 = experiment: NCI growth inhibition and cytotoxicity screen, Melanoma panel; conditions: Homo sapiens; for GI50: UACC-257; for CC50: UACC-257, read-out: LC50
# U251 = experiment: NCI growth inhibition and cytotoxicity screen, CNS Cancer panel; conditions: Homo sapiens; for GI50: U-251; for CC50: U-251, read-out: LC50
# SF-295 = experiment: as above; format: cell-based; conditions: Homo sapiens, Table 2, cell line SF-295 (CNS Cancer); for CC50: read-out: LC50 (the source's name)
# SN12C = experiment: NCI growth inhibition and cytotoxicity screen, Renal Cancer panel; conditions: Homo sapiens; for CC50: read-out: LC50
# [2] = range over the potently inhibited cell lines, read-out: GI50 ranging (potently inhibited cancer cell lines)
# [3] = read-out: average GI50 value on all the cancer cell lines
smiles,measurement,setting,value
"COc1cc(OC)cc(/C(C#N)=C/c2cnc3ccccc3c2)c1 [PNR-4-85, (Z)-3-(quinolin-3-yl)-2-(3,5-dimethoxyphenyl)acrylonitrile]",GI50,NCI-H23,747 nM
same,CC50,NCI-H23,> 100000 nM
same,GI50,CCRF-CEM,332 nM
same,CC50,CCRF-CEM,> 100000 nM
same,GI50,SW-620,352 nM
same,CC50,SW-620,> 100000 nM
same,GI50,786-0,484 nM
same,CC50,786-0,> 100000 nM
same,GI50,BT-549,388 nM
same,CC50,BT-549,> 100000 nM
same,GI50,M14,310 nM
same,CC50,M14,> 100000 nM
same,GI50,NCI-H322M,903 nM
same,CC50,NCI-H322M,> 100000 nM
same,CC50,UO-31,> 100000 nM
same,GI50,HCT-15,455 nM
same,CC50,HCT-15,> 100000 nM
same,GI50,KM12,409 nM
same,CC50,KM12,> 100000 nM
same,GI50,SK-OV-3,576 nM
same,CC50,SK-OV-3,> 100000 nM
same,GI50,SF-268,654 nM
same,CC50,SF-268,> 100000 nM
same,GI50,NCI-H226,62200 nM
same,CC50,NCI-H226,> 100000 nM
same,GI50,MALME-3M,635 nM
same,CC50,MALME-3M; read-out: LC50,> 100000 nM
same,GI50,[1]; [2],53 to 903 nM
same,GI50,[1]; [3],2210 nM
same,potent growth inhibition on % of the cancer cell lines,[1],81%
same,GI50,CAKI-1,223 nM
same,CC50,CAKI-1,> 100000 nM
same,GI50,NCI/ADR-RES,224 nM
same,CC50,NCI/ADR-RES,> 100000 nM
same,GI50,HT29,362 nM
same,CC50,HT29,> 100000 nM
same,GI50,K-562,243 nM
same,CC50,K-562,> 100000 nM
same,GI50,IGROV1,3500 nM
same,CC50,IGROV1,> 100000 nM
same,GI50,NCI-H460,362 nM
same,CC50,NCI-H460,> 100000 nM
same,GI50,LOX-IMVI,672 nM
same,CC50,LOX-IMVI,> 100000 nM
same,GI50,SNB-19,614 nM
same,CC50,SNB-19,> 100000 nM
same,GI50,HCT-116,420 nM
same,CC50,HCT-116,> 100000 nM
same,GI50,UACC-257,12800 nM
same,CC50,UACC-257,> 100000 nM
same,GI50,U251,374 nM
same,CC50,U251,> 100000 nM
same,GI50,SF-295,243 nM
same,CC50,SF-295,> 100000 nM
same,GI50,SN12C,661 nM
same,CC50,SN12C,> 100000 nM
"COc1cc(/C(C#N)=C/c2ccc3ccccc3n2)cc(OC)c1OC [PNR-4-90, (Z)-3-(quinolin-2-yl)-2-(3,4,5-trimethoxyphenyl)acrylonitrile]",GI50,NCI-H23,751 nM
same,CC50,NCI-H23,> 100000 nM
same,GI50,CCRF-CEM,248 nM
same,CC50,CCRF-CEM,> 100000 nM
same,GI50,SW-620,164 nM
same,CC50,SW-620,> 100000 nM
same,GI50,786-0,445 nM
same,CC50,786-0,> 100000 nM
same,GI50,BT-549,315 nM
same,CC50,BT-549,> 100000 nM
same,GI50,M14,173 nM
same,CC50,M14,> 100000 nM
same,GI50,NCI-H322M,718 nM
same,CC50,NCI-H322M,> 100000 nM
same,GI50,UO-31; UO-31,762 nM
same,CC50,UO-31,> 100000 nM
same,GI50,HCT-15,319 nM
same,CC50,HCT-15,> 100000 nM
same,GI50,KM12,350 nM
same,CC50,KM12,> 100000 nM
same,GI50,SK-OV-3,524 nM
same,CC50,SK-OV-3,> 100000 nM
same,GI50,SF-268,835 nM
same,CC50,SF-268,> 100000 nM
same,GI50,NCI-H226,4780 nM
same,CC50,NCI-H226,> 100000 nM
same,GI50,[1]; [2],33 to 943 nM
same,GI50,[1]; [3],400 nM
same,potent growth inhibition on % of the cancer cell lines,[1],91%
same,GI50,CAKI-1,68 nM
same,CC50,CAKI-1,> 100000 nM
same,GI50,NCI/ADR-RES,112 nM
same,CC50,NCI/ADR-RES,> 100000 nM
same,GI50,HT29,240 nM
same,CC50,HT29,> 100000 nM
same,GI50,K-562,80 nM
same,CC50,K-562,> 100000 nM
same,GI50,IGROV1,846 nM
same,CC50,IGROV1,> 100000 nM
same,GI50,NCI-H460,361 nM
same,CC50,NCI-H460,> 100000 nM
same,GI50,LOX-IMVI,766 nM
same,CC50,LOX-IMVI,> 100000 nM
same,GI50,SNB-19,578 nM
same,CC50,SNB-19,> 100000 nM
same,GI50,HCT-116,234 nM
same,CC50,HCT-116,> 100000 nM
same,GI50,UACC-257,761 nM
same,CC50,UACC-257,> 100000 nM
same,GI50,U251,355 nM
same,CC50,U251,90500 nM
same,GI50,SF-295,277 nM
same,CC50,SF-295,> 100000 nM
same,GI50,SN12C,627 nM
same,CC50,SN12C,> 100000 nM
